Test results published in article PMC6524651 (Cell chemical biology, 2018).
pIC50: −log10 of the molar value.

What was measured:
SUMO E1 WT = SUMO E1 WT (Homo sapiens, UniProt Q9UBT2); assay type: biochemical; conditions: 0.25 μM E1 WT, 15 minutes at 37 °C
SUMO E1 [1] = target: T1, SUMO E1 (Homo sapiens, UniProt Q9UBT2); experiment: Dialysis of inhibited SUMO E1 followed by SUMOylation assay; assay type: biochemical; conditions: no enzyme activity up to 8 hours of dialysis
SUMO E1 in HCT-116 cells = SUMO E1 in HCT-116 cells (Homo sapiens, UniProt Q9UBT2); experiment: Western blot of Ubc9•SUMO thioester formation in cells; conditions: HCT-116 cell lysates
SUMO E1 [2] = target: T1, SUMO E1; experiment: Differential scanning fluorimetry of SUMO E1; conditions: SUMO E1 fully inhibited by COH000
[3] = target: SUMO activating enzyme (SAE, SUMO E1) (Homo sapiens, UniProt Q9UBT2); experiment: AlphaScreen in vitro SUMOylation assay; assay type: biochemical
[4] = test system: cellular proteins of HCT116 cells; experiment: Target profiling by pull-down with alkyne-containing probe; assay type: cell-based, human; conditions: preliminary profiling, 2 μM
SAE2 = SAE2 (Homo sapiens, UniProt Q9UBT2); experiment: Western blot of SAE2 level and modification in cells with or without MG132; conditions: MG132 2 hours prior, 2 hours of COH000 treatment
SAE2 in HCT116 cells [5] = target: T2, SAE2 in HCT116 cells (Homo sapiens, UniProt Q9UBT2); experiment: Pulse-chase assay of SAE2 degradation
[6] = test system: primary colorectal tumor cells from PDX; experiment: Primary colorectal tumor cells from patient-derived xenograft tissues; assay type: cell-based, human
[7] = target: SAE2 (SUMO E1) Cys residues (Homo sapiens, UniProt Q9UBT2); experiment: LC-MS/MS analysis of pepsin digest of SUMO E1 inhibited by COH000; assay type: binding
[8] = test system: ubiquitylation (Ubc13-mediated poly-ubiquitylation); experiment: Ubc13-mediated poly-ubiquitylation assay; assay type: biochemical, human; conditions: same condition as SUMOylation assay
[9] = target: T3, Nedd8 activating enzyme in HCT-116 cells (Homo sapiens, UniProt Q8TBC4); experiment: Western blot of Nedd8•Ubc12 thioester formation in cells; assay type: cell-based; conditions: HCT-116 cell lysates
T3 sequence (Q8TBC4 1-463): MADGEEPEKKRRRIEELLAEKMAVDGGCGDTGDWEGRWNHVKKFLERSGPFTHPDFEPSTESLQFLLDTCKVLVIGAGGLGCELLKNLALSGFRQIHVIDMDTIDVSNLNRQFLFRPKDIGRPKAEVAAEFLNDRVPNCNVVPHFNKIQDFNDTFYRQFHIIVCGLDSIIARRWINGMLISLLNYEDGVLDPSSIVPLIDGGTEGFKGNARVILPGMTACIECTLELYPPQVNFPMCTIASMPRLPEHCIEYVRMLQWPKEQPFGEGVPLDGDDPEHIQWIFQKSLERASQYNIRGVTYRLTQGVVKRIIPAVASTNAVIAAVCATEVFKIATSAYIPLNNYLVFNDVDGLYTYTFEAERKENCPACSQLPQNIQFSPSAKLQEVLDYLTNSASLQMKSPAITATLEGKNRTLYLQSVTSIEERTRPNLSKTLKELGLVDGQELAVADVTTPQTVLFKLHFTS
T3 sequence (Q13564 1-534 partner): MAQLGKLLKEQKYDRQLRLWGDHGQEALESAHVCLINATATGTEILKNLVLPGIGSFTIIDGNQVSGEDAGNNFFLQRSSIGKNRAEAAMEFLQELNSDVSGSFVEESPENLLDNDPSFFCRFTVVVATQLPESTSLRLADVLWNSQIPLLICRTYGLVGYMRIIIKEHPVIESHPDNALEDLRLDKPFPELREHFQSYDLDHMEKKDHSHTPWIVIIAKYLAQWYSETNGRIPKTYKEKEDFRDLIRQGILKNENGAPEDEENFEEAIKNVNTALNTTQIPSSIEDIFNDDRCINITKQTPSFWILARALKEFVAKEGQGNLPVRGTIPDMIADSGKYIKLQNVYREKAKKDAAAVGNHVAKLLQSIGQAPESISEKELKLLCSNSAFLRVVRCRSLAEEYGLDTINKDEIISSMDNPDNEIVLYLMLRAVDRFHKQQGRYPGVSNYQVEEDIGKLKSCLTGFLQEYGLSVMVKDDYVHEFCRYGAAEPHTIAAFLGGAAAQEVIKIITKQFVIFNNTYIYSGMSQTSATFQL

SAE2 in HCT116 cells [10] = target: T2, SAE2 in HCT116 cells; experiment: Cellular thermal shift assay; conditions: 2 hours at 37°C, 42–56°C

T2 sequence (Q9UBT2 whole entry): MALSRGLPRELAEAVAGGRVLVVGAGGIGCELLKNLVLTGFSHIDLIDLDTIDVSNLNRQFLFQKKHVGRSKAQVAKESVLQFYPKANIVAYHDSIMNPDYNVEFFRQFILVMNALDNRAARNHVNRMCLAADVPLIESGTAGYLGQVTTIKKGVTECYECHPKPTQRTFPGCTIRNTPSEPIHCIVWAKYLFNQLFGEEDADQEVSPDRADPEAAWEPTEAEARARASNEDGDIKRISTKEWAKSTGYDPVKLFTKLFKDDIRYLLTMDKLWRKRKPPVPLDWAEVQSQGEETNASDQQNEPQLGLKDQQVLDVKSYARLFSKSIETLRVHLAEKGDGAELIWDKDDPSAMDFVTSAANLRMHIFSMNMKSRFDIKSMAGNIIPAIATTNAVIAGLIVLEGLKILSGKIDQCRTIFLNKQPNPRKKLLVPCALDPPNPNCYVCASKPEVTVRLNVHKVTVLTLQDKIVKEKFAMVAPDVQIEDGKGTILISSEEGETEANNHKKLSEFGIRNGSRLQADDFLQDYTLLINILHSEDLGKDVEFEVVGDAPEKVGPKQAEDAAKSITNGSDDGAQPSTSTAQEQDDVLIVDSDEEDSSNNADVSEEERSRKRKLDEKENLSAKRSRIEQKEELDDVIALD
T2 sequence (Q9UBE0 whole entry partner): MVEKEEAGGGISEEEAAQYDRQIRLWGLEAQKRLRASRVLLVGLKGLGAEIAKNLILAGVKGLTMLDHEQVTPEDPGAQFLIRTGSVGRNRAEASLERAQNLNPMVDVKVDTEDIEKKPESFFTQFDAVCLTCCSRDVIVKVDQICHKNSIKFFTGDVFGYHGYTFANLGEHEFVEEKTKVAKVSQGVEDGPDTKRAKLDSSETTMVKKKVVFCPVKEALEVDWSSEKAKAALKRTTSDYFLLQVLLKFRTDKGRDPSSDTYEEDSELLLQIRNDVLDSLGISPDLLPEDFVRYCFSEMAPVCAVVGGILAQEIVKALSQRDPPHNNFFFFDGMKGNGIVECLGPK
SUMO activating enzyme (SAE, SUMO E1), sequence (Q9UBT2 whole entry): as the sequence (Q9UBT2 whole entry) above
SUMO activating enzyme (SAE, SUMO E1), sequence (Q9UBE0 whole entry partner): as the sequence (Q9UBE0 whole entry partner) above
SAE2 (SUMO E1) Cys residues, sequence (Q9UBT2 whole entry): as the sequence (Q9UBT2 whole entry) above
SAE2 (SUMO E1) Cys residues, sequence (Q9UBE0 whole entry partner): as the sequence (Q9UBE0 whole entry partner) above
T1 sequence (Q9UBT2 whole entry): as the sequence (Q9UBT2 whole entry) above
T1 sequence (Q9UBE0 whole entry partner): as the sequence (Q9UBE0 whole entry partner) above
SUMO E1 in HCT-116 cells, sequence (Q9UBT2 whole entry): as the sequence (Q9UBT2 whole entry) above
SUMO E1 in HCT-116 cells, sequence (Q9UBE0 whole entry partner): as the sequence (Q9UBE0 whole entry partner) above
SUMO E1 WT, sequence (Q9UBT2 whole entry): as the sequence (Q9UBT2 whole entry) above
SUMO E1 WT, sequence (Q9UBE0 whole entry partner): as the sequence (Q9UBE0 whole entry partner) above
SAE2, sequence (Q9UBT2 whole entry): as the sequence (Q9UBT2 whole entry) above
SAE2, sequence (Q9UBE0 whole entry partner): as the sequence (Q9UBE0 whole entry partner) above

COC(=O)C1=C(C(=O)OC)C2([C@@H](Cc3ccc(C)cc3)Nc3ccccc3)C=CC1O2 (stereo partly drawn) [COH000, dimethyl 1-((R)-1-(phenylamino)-2-(p-tolyl)ethyl)7-oxabicyclo[2.2.1]hepta-2,5-diene-2,3-dicarboxylate]
inhibition of Ubc9•SUMO thioester formation, WT enzyme (SUMO E1 WT): inhibited by COH000 in a dose-dependent manner
reversibility of SUMO E1 inhibition (SUMO E1 [1]): irreversible
SUMO•Ubc9 thioester formation in cells (SUMO E1 in HCT-116 cells): inhibited only SUMO•Ubc9 thioester formation in a dose-dependent manner
thermal denaturation of SUMO E1, inhibitor bound vs unbound (SUMO E1 [2]): higher melting temperature
pIC50 [3]: ~6.70
selectivity for SUMOylation than ubiquitylation ([3]; SUMOylation vs Ubc13-mediated poly-ubiquitylation): over 500 fold
other targets in cells (pull-down with alkyne-containing analog probe) [4]: does not have a large number of other targets
ubiquitylation of SAE2 in cells (SAE2): increased ubiquitylation of SAE2
degradation of SAE2 (pulse-chase) (SAE2 in HCT116 cells [5]): increased the degradation of SAE2
cancer cell viability in primary colorectal PDX samples [6]: decreased cancer cell viability
apoptosis in primary colorectal PDX samples ([6]; 48 h treatment): induced apoptosis
c-Myc level, samples from Patient #2 and #3 ([6]; higher c-Myc levels): showed reduced c-Myc levels
c-Myc level, sample from Patient #1 ([6]; lowest c-Myc level among the three samples): did not show much further reduction of c-Myc level
modification of catalytic Cys173 of SAE2 ([7]; full inhibition by the compound): did not modify Cys173
labeling of SAE2 Cys30 by intact mass ([7]; full inhibition, >10 fold excess for > 1 h): 100%
concentration up to which ubiquitylation was not inhibited [8]: > 100 µM
NEDD8•Ubc12 thioester formation in cells [9]: did not inhibit the homologous enzymes catalyzing ubiquitylation or NEDDylation
thermal stability of SAE2 in cells (CETSA) (SAE2 in HCT116 cells [10]): increased the thermal stability of the enzyme in a dose dependent manner
